Source: patent US8247376B2, “NGAL for reduction and amelioration of ischemic and nephrotoxic injuries” (The Trustees of Columbia University, priority 2004, dated 2012)
“Also recorded” adds a separate entry of the source.

Columns and labels:
NGAL = NGAL (Homo sapiens, UniProt P80188); conditions: read-out: affinity of siderophore binding to NGAL (calyx); cited from earlier work
[1] = test system: mouse model of ATN or ischemia/reperfusion injury; experiment: Mouse model of ATN (30 min clamp, contralateral nephrectomy): plasma creatinine; type: in vivo, mice; conditions: mice, 30 minutes of ischemia; 10 μg protein or single dose, 15 min prior to ischemia
Experimental: Male C57BL/6 mice (20-25 gr; Charles River) were anesthetized with intraperitoneal pentobarbital (50 mg/kg) and placed on a heating pad under a warming light to maintain 37© core body temperature. Kidneys were exposed through an abdominal section and the right kidney was either removed or its vascular pedicle and ureter ligated. The vascular pedicle of the left kidney or both kidneys was clamped by a microaneurysm clip (Kent Scientific) for 30 minutes after right nephrectomy. This period of ischemia generated reproducible renal injury but minimized mortality. During the procedure, PBS (0.5 ml) was used to dampen the peritoneum. The animal was closed with 5-0 Nylon. Saline, NGAL, retinol-loaded retinol binding protein (RBP), enterochelin, or desferroxamine mesylate (DFO) were injected into the peritoneum or subcutaneously 15 min. prior to ischemia or 1-2 hr after reperfusion.
After 6 or 24 hr of reperfusion, heparinized plasma, urine and kidney samples were obtained to measure NGAL (polyclonal 1:500), Heme oxygenase-1 (Stressgen, 1:2000), E-cadherin (BD Transduction Labs, 1:2000), N-cadherin (BD Transduction Labs, 1:3000) and GAPDH (Chemicon International, 1:3000) using immunoblots. Plasma was also used for creatinine and blood urea nitrogen colorimetric assays. Sagittal sections of the kidney were fixed in 4% formalin, or were snap frozen for mRNA and protein analysis. Paraffin-embedded sections (5 μm) were stained with hematoxylin-eosin or by an in situ kit (Fluorescein-TUNEL, Roche) for apoptotic nuclei or for total nuclei (Toprol, Molecular Probes). For cell proliferation analysis, BrdU was injected into the peritoneum 1 hour before sacrifice, and cryostat sections were stained with anti-BrdU (Roche) according to the manufacturer.

[2] = Distribution and radioautography of ^55Fe after ^55Fe:Sid:NGAL injection; type: in vivo, mice; conditions: non-protein bound ^55Fe citrate
[3] = previously reported; cited from earlier work

Molecule: O=C(N[C@H]1COC(=O)[C@@H](NC(=O)c2cccc(O)c2O)COC(=O)[C@@H](NC(=O)c2cccc(O)c2O)COC1=O)c1cccc(O)c1O [Sid, enterochelin, reference compound]
- Kd (NGAL): 0.4 nM
- protection against ATN (creatinine, FIG. 17A) [1]: failed to protect against ATN; also recorded: ineffective

Molecule: O=C([O-])CC(O)(CC(=O)[O-])C(=O)[O-].[Fe+3] [^55Fe citrate]
- iron recovered in the kidney [2]: 1.5%

B1: human NGAL: human NGAL of previously reported clearance data (protein, UniProt P80188 21-198, looked up)
Neutrophil …: QDSTSDLIPAPPLSKVPLQQNFQDNQFQGKWYVVGLAGNAILREDKDPQKMYATIYELKEDKSYNVTSVLFRKKKCDYWIRTFVPGCQPGEFTLGNIKSYPGLTSYLVRVVSTNYNQHAMVFFKKVSQNREYFKITLYGRTKELTSELKENFIRFSKSLGLPENHIVFPVPIDQCIDG
- kidney versus liver level per mg protein [3]: 12 fold
- t1/2 of clearance from the circulation [3]: 10 min
